Format in all cases: biochemical
The target of test [1] is T1, recombinant human DAO (diamine oxidase) (Homo sapiens, UniProt P19801).
T1 construct: purchased R&D systems
T1 sequence (P19801 20-751): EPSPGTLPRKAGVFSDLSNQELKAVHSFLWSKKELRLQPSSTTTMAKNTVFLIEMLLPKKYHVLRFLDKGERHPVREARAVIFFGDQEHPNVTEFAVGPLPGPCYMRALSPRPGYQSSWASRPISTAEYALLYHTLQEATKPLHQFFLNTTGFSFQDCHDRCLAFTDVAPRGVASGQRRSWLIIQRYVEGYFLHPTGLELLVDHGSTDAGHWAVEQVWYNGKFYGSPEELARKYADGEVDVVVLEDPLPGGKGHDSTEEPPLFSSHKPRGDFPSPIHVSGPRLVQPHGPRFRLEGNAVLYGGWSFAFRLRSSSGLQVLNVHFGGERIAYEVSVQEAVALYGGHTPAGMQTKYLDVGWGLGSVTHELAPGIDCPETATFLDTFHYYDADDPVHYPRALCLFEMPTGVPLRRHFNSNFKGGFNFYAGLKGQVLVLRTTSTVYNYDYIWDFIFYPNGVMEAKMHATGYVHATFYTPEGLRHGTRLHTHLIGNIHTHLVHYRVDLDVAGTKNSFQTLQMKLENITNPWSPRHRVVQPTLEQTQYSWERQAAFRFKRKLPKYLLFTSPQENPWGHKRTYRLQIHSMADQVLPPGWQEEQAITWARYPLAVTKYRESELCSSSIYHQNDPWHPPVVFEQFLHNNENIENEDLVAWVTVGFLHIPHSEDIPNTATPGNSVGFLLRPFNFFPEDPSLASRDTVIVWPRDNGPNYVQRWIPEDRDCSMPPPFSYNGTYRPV
Kind of test: Activity evaluation on recombinant human DAO (Amplex Red/HRP-coupled assay, 1 mM putrescine substrate). As to conditions: read-out: Inhibitory Activity (IC50, nM) DAO. Summed up: (§1)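 Each oxidase is tested with its own substrate: MAO-A with 0.5 mM tyramine, MAO-B with 1 mM benzylamine, DAO with 1 mM putrescine. After 30 min enzyme-compound preincubation at 37 °C, Amplex Red (200 uM) plus HRP (1 U/mL) reports H2O2 as fluorescence; IC50 is fitted from eight-point curves.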

Test [2] addresses T2, recombinant human MAO-B (monoamine oxidase-B) (Homo sapiens, UniProt P27338).
T2 construct: purchased Sigma-Aldrich
T2 sequence (P27338 1-520): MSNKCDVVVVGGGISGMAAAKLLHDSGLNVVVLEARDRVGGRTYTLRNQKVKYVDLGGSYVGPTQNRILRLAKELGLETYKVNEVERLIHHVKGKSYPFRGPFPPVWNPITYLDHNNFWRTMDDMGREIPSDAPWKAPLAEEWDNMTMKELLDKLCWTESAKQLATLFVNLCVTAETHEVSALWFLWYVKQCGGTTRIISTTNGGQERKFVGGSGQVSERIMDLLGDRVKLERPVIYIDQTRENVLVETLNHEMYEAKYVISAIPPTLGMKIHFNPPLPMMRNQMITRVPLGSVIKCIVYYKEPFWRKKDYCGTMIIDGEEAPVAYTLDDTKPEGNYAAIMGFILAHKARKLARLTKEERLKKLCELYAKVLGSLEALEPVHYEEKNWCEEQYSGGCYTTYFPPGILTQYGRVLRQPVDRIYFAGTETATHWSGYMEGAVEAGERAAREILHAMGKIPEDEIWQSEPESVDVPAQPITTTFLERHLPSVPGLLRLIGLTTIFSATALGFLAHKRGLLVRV
Kind of test: Activity evaluation on recombinant human MAO-B (Amplex Red/HRP-coupled assay, 1 mM benzylamine substrate). As to conditions: read-out: Inhibitory Activity (IC50, nM) MAO-B. Summed up: as §1

In test [3] the target is T3, recombinant human MAO-A (monoamine oxidase-A) (Homo sapiens, UniProt P21397).
T3 construct: purchased Sigma-Aldrich
T3 sequence (P21397 1-527): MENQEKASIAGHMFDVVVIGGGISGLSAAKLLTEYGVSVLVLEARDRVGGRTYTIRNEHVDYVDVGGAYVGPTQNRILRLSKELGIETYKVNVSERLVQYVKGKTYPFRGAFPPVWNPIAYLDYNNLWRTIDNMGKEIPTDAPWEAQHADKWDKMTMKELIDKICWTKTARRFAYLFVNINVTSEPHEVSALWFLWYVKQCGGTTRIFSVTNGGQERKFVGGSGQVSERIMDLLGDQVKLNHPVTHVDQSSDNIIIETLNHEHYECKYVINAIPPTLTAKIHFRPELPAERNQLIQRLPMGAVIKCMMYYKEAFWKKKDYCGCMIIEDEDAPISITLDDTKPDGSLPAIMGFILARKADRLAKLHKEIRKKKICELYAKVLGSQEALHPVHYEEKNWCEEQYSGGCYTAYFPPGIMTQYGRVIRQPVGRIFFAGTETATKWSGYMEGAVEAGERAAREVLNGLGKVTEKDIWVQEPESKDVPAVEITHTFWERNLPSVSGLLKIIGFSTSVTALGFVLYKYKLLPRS
Nature of the test: Activity evaluation on recombinant human MAO-A (Amplex Red/HRP-coupled assay, 0.5 mM tyramine substrate). To be noted: read-out: Inhibitory Activity (IC50, nM) MAO-A. The procedure, abridged: as §1

Test [4] has as its target T4, recombinant human VAP-1 (Homo sapiens, UniProt Q16853).
T4 construct: purchased R&D systems
T4 sequence (Q16853 1-763): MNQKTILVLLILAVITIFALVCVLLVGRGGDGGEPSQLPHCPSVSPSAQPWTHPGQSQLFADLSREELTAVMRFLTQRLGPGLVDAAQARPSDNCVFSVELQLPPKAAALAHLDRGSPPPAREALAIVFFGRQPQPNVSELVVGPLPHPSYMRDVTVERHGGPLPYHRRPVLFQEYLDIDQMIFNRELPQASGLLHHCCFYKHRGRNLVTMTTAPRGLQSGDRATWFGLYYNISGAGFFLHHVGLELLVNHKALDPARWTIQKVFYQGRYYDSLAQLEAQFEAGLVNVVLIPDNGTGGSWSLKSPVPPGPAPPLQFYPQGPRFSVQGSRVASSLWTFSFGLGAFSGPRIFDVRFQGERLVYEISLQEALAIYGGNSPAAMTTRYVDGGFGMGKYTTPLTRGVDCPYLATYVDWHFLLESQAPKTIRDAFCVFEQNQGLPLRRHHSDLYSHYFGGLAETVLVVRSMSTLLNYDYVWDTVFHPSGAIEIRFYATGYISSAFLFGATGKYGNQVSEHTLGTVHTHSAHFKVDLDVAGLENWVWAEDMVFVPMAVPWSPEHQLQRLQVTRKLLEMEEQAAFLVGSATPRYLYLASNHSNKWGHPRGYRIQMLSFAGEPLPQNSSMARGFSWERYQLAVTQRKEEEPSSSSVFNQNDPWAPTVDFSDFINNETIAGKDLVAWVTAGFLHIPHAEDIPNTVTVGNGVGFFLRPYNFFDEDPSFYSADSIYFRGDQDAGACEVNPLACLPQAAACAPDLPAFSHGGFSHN
Nature of the test: Activity evaluation on recombinant human VAP-1 (Amplex Red/HRP-coupled hydrogen peroxide assay, benzylamine substrate). To be noted: read-out: Inhibitory Activity (IC50, nM) human VAP-1. The procedure, abridged:
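Hydrogen peroxide from benzylamine (1 mM) oxidation by human recombinant VAP-1 detected via HRP-coupled Amplex Red (200 uM) fluorescence, kinetic over 1–2 h. Enzyme and compound preincubated 30 min at 37 °C, pH 7.4 phosphate; 8-point dose response, signal-rate decrease versus DMSO control fitted to four-parameter logistic for IC50.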

Where [5] appears, read: recombinant human VAP-1, 30 min preincubation at 37° C., 1 mM benzylamine.
The mark [6] stands for this setting: recombinant human VAP-1, benzylamine substrate.

Where a name gives a salt, the structure may show the parent alone. Read-outs that look alike come from different tables or passages of the source.

As a reminder, the IC50 is the concentration needed to halve the response being measured. On to `Cc1cc(-n2cnn(CC(CN)=C(F)F)c2=O)cnc1-c1ccc(S(C)(=O)=O)cc1` [Example 76, 2-[2-(aminomethyl)-3,3-difluoro-allyl]-4-[5-methyl-6-(4-methylsulfonylphenyl)-3-pyridyl]-1,2,4-triazol-3-one Trifluoroacetate], for which the IC50 in test [1] (1 mM putrescine) was 32 nM; in test [2] (1 mM benzylamine) it was 44000 nM; in test [3] (0.5 mM tyramine) it was above 100000 nM; in test [4] (setting [5]) it was 1.1 nM.
As for `CS(=O)(=O)c1ccc(-c2cccc(Cn3cnn(CC(CN)=C(F)F)c3=O)c2)cc1` [Example 272, 2-[2-(aminomethyl)-3,3-difluoro-allyl]-4-[[3-(4-methylsulfonylphenyl)phenyl]methyl]-1,2,4-triazol-3-one Trifluoroacetate], the IC50 in test [1] (1 mM putrescine substrate) was 4330 nM; in test [2] (1 mM benzylamine substrate), 23800 nM; in test [3] (0.5 mM tyramine substrate), above 100000 nM; in test [4] (setting [6]) it was 3.2 nM.
In the case of `Cc1cc(-c2ccc3nonc3c2)cnc1-n1cnn(CC(CN)=C(F)F)c1=O` [Example 227, 2-[2-(aminomethyl)-3,3-difluoro-allyl]-4-[5-(2,1,3-benzoxadiazol-5-yl)-3-methyl-2-pyridyl]-1,2,4-triazol-3-one Trifluoroacetate], the half-inhibitory concentration (IC50) in test [1] (1 mM putrescine substrate) was 4800 nM; in test [2] (1 mM benzylamine substrate), 340 nM; in test [3] (0.5 mM tyramine substrate), above 100000 nM; in test [4] (setting [6]), 0.7 nM.
Take `NCC(Cn1ncn(Cc2cc3ccc(-c4ccc(C(F)(F)F)nc4)cc3s2)c1=O)=C(F)F` [Example 199, 2-[2-(aminomethyl)-3,3-difluoro-allyl]-4-[[6-[6-(trifluoromethyl)-3-pyridyl]benzothiophen-2-yl]methyl]-1,2,4-triazol-3-one Trifluoroacetate]: the IC50 in test [1] (1 mM putrescine substrate) was 15000 nM; in test [2] (1 mM benzylamine substrate), 1100 nM; in test [3] (0.5 mM tyramine substrate) it was above 100000 nM; in test [4] (setting [6]), 1.7 nM.
`CS(=O)(=O)c1ccc(-c2ccc(CCn3cnn(CC(CN)=C(F)F)c3=O)s2)cc1` [Example 173, 2-[2-(aminomethyl)-3,3-difluoro-allyl]-4-[2-[5-(4-methylsulfonylphenyl)-2-thienyl]ethyl]-1,2,4-triazol-3-one trifluoroacetate]: the IC50 was 260 nM in test [1] (1 mM putrescine), 69000 nM in test [2] (1 mM benzylamine), above 100000 nM in test [3] (0.5 mM tyramine) and 0.3 nM in test [4] (setting [5]).
Regarding `Cc1cc(C#Cc2ccc(N3CCOCC3)nc2)cnc1-n1cnn(CC(CN)=C(F)F)c1=O` [Example 242, 2-[2-(aminomethyl)-3,3-difluoro-allyl]-4-[3-methyl-5-[2-(6-morpholino-3-pyridyl)ethynyl]-2-pyridyl]-1,2,4-triazol-3-one Trifluoroacetate], the IC50 in test [1] (1 mM putrescine substrate) was 4200 nM; in test [2] (1 mM benzylamine substrate) it was 29000 nM; in test [3] (0.5 mM tyramine substrate) it was above 100000 nM; in test [4] (setting [6]), 1 nM.
As for `NCC(Cn1ncn(Cc2ccc(-c3ccc4c(c3)COC(=O)N4)s2)c1=O)=C(F)F` [Example 143, 6-[5-[[1-[2-(aminomethyl)-3,3-difluoro-allyl]-5-oxo-1,2,4-triazol-4-yl]methyl]-2-thienyl]-1,4-dihydro-3,1-benzoxazin-2-one Trifluoroacetate], the IC50 was above 10000 nM in test [1] (1 mM putrescine), 6400 nM in test [2] (1 mM benzylamine), above 100000 nM in test [3] (0.5 mM tyramine) and 0.2 nM in test [4] (setting [5]).
Turning to `Cc1cc(C#Cc2cnn(C)c2)cnc1-n1cnn(CC(CN)=C(F)F)c1=O` [Example 240, 2-[2-(aminomethyl)-3,3-difluoro-allyl]-4-[3-methyl-5-[2-(1-methylpyrazol-4-yl)ethynyl]-2-pyridyl]-1,2,4-triazol-3-one trifluoroacetate], the half-inhibitory concentration (IC50) in test [1] (1 mM putrescine substrate) was 30000 nM; in test [2] (1 mM benzylamine substrate), 15000 nM; in test [3] (0.5 mM tyramine substrate) it was above 100000 nM; in test [4] (setting [6]), 1 nM.
With `Cc1cc(-n2cnn(CC(CN)=C(F)F)c2=O)cnc1-c1ccc2c(c1)OCO2` [Example 79, 2-[2-(aminomethyl)-3,3-difluoro-allyl]-4-[6-(1,3-benzodioxol-5-yl)-5-methyl-3-pyridyl]-1,2,4-triazol-3-one Trifluoroacetate], the concentration for half-maximal inhibition (IC50) in test [1] (1 mM putrescine) was 200 nM; in test [2] (1 mM benzylamine), 910 nM; in test [3] (0.5 mM tyramine), above 100000 nM; in test [4] (setting [5]) it was 0.9 nM.
For `Cc1cc(-c2cccc(S(C)(=O)=O)c2)cnc1-n1cnn(CC(CN)=C(F)F)c1=O` [Example 234, 2-[2-(aminomethyl)-3,3-difluoro-allyl]-4-[3-methyl-5-(3-methylsulfonylphenyl)-2-pyridyl]-1,2,4-triazol-3-one Trifluoroacetate], the half-maximal inhibitory concentration (IC50) in test [1] (1 mM putrescine substrate) was 7500 nM; in test [2] (1 mM benzylamine substrate) it was 1800 nM; in test [3] (0.5 mM tyramine substrate) it was above 100000 nM; in test [4] (setting [6]), 0.4 nM.
Turning to `Cc1cc(Br)sc1Cn1cnn(CC(CN)=C(F)F)c1=O` [Example 99, 2-[2-(aminomethyl)-3,3-difluoro-allyl]-4-[(5-bromo-3-methyl-2-thienyl)methyl]-1,2,4-triazol-3-one Trifluoroacetate], the half-inhibitory concentration (IC50) was above 100000 nM in test [1] (1 mM putrescine), 21000 nM in test [2] (1 mM benzylamine), above 100000 nM in test [3] (0.5 mM tyramine) and 9.3 nM in test [4] (setting [5]).

Source of the values: patent US11168073B2, “3,3-difluoroallylamines or salts thereof and pharmaceutical compositions comprising the same” (YUHAN CORPORATION, priority 2018, dated 2021).
